Columns and labels:
[1] = tested on: stage II/III rectal cancer; conditions: neo-adjuvant or adjuvant 5-FU and radiation therapy; cited from earlier work
[2] = tested on: stage II/III rectal cancer; test: Phase III trial (INT-0144, S9304) of 5-FU and radiation: disease-free survival by intratumoral gene expression tertile; format: in vivo, human
Description: Methods: A total of 422 stage II/III rectal patients from a phase III trial (INT-0144, […]) of three regimens of 5-FU and radiation were available for gene expression assays. mRNA was extracted from laser-capturemicrodissected tumor tissue. cDNA was prepared by reverse transcription and quantitation of the candidate genes was performed using a fluorescence-based real-time detection method. The gene expression data were analyzed by splitting the expression data into three (tertiles) groups using 33rd and 66th percentile.

Structure (SMILES): O=c1[nH]cc(F)c(=O)[nH]1 [5-FU, 5-fluorouracil]
- overall 5-year survival rate [1]: approximately 50%
- three year DFS ([2]; patients with high TP gene expression (tertile)): 79%
- three year DFS ([2]; patients with high VEGF gene expression (tertile)): 65%
- three year DFS ([2]; patients with low TP gene expression (tertile)): 65%
- three year DFS ([2]; patients with low VEGF gene expression (tertile)): 77%
- three year DFS ([2]; patients with median TP gene expression (tertile)): 67%
- three year DFS ([2]; patients with median VEGF gene expression (tertile)): 69%

Source: patent US20120077685A1, “INTRATUMORAL GENE EXPRESSION LEVELS OF TP AND VEGF ARE ASSOCIATED WITH CLINICAL OUTCOMES IN RECTAL CANCER PATIENTS TREATED WITH 5-FLUOROURACIL AND PELVIC RADIATION” (University of Southern California, priority 2010, published 2012)
